{"source": "patent US11807625B2", "about": "“Capsid inhibitors for the prevention of HIV” (Gilead Sciences, Inc., priority 2019, dated 2023)", "key": {"SHIV-162P3": {"system": "SHIV-162P3", "assay": "7-day antiviral assay (p24 ELISA endpoint) in rhesus PBMCs infected with SHIV-162P3", "type": "cell-based", "experimental": "The mean 95% effective concentration (EC95) of 1.91±0.16 nM for a compound of Formula (Ib) (“Compound Ib”) was determined using a 7-day antiviral assay (p24 ELISA endpoint) in rhesus peripheral blood mononuclear cells (PBMCs) infected with SHIV-162P3. A competitive equilibrium dialysis assay was used to quantify rhesus plasma protein binding to Compound Ib, resulting in an inhibitory quotient (IQ) equal to Compound Ib plasma concentrations divided by a mean rhesus plasma protein-binding-adjusted EC95 (paEC95) value of 30.2±2.5 nM."}, "SHIV": {"system": "SHIV", "assay": "PrEP efficacy in rhesus repeat intrarectal SHIV challenge model, plasma viral load by qRT-PCR", "type": "in vivo, rhesus macaques", "conditions": "for Plasma SHIV: rhesus, individual animals", "experimental": "The PrEP efficacy a compound of Formula (Ib) in rhesus was evaluated using a repeat intrarectal (IR) challenge model.\nThis study also established a correlation between exposure and protection using a single high-dose administration of a compound of Formula (Ib) vs. placebo, followed by multiple weekly IR challenges until infection occured. In this study, multiple challenges overlapped with clinically-relevant drug levels. The supratherapeutic IQs (inhibitory quotients) were assessed to maximize protection and achieve proof-of-concept in case rectal tissue levels were much lower than in plasma. Lower doses of a compound of Formula (Ib), or a pharmaceutically acceptable salt thereof, were assessed to capture more challenges at clinically relevant exposures, reducing the number of IR challenges, and facilitating a drug washout phase. The washout phase lasted for at least 20 weeks. In some embodiments, the washout phase lasted for 20-25 weeks. The washout phase of these studies was important to enable the administered drug concentrations to decline sufficiently below those that were expected to be clinically suppressive in order to confirm that animals that remained aviremic in the study did so because they were protected from infection as opposed to being infected following one or more of the viral challenges but remaining suppressed by prolonged therapeutic concentrations of the long-acting drug in plasma and/or tissue compartments.\nFIG. 3 is a schematic of the study using a compound of Formula (Ib) in adult rhesus macaques (1:1 male/female ratio). Eight animals per group were treated with a single dose of placebo control, 150 mg/kg of a compound of Formula (Ib) (“Compound 1b”) or 300 mg/kg of a compound of Formula (Ib) (“Compound 1b”) on week 0 and allowed to wash out over time. All animals were challenged intrarectally with SHIV weekly beginning on week 1 until detectable viremia or up to a maximum of 15 challenges. SHIV challenge titer was increased over time from 10 TCID50 to 100 TCID50 through week 15 as depicted. Animal SHIV infection rate was assessed by weekly plasma viral load monitoring by qRT-PCR through study week 20. The protective efficacy of a compound of Formula (Ib) (“Compound 1b”) was established by comparing to infection rate observed in the placebo control group using the Cox proportional hazards model analysis.\nViral infection was scored one week after each SHIV challenge using a quantitative RT-PCR assay. Infected animals were defined as having a viral load >200 copies per mL plasma and the corresponding plasma viral load values are bolded.\nViral load measurements details: RNA was extracted from plasma using a QIAcube HT and the QIAcube 96 Cador pathogen HT kit (Qiagen). Gag RNA standards were generated using the AmpliCapMax™ T7 High Yield Message Maker Kit (Cell Script) and purified with RNA clean and concentrator kit (Zymo Research). Log dilutions of RNA were included with each assay run. Reverse transcription of both standards and samples was performed using Superscript III VILO (Invitrogen). Quantitative PCR was performed using the Quantstudio 6 Flex system with TaqMan™ Fast Advanced Master Mix (Applied Biosystems). Primer sequences were F-[…] (SEQ ID NO. 1) and R-[…] (SEQ ID NO. 2). The probe sequence was […] (SEQ ID NO. 3), and probe was labeled with FAM and BHQ (Biosearch Technologies). Viral loads were calculated as gag copies per mL."}}}
{"smiles": "CC(C)(C#Cc1ccc(-c2ccc(Cl)c3c(NS(=O)(=O)C4CC4)nn(CC(F)F)c23)c([C@H](Cc2cc(F)cc(F)c2)NC(=O)Cn2nc(C(F)F)c3c2C(F)(F)[C@@H]2C[C@H]32)n1)S(C)(=O)=O", "note": "[Compound Ib, N—((S)-1-(3-(4-chloro-3-(cyclopropanesulfonamido)-1-(2,2-difluoroethyl)-1H-indazol-7-yl)-6-(3-methyl-3-(methylsulfonyl)but-1-yn-1-yl)pyridin-2-yl)-2-(3,5-difluorophenyl)ethyl)-2-((3b S,4aR)-3-(difluoromethyl)-5,5-difluoro-3b,4,4a,5-tetrahydro-1H-cyclopropa[3,4]cyclopenta[1,2-c]pyrazol-1-yl)acetamide]", "values": [{"measurement": "mean 95% effective concentration (EC95)", "setting": "SHIV-162P3", "result": "1.91 ± 0.16", "unit": "nM"}, {"measurement": "Plasma SHIV", "setting": "SHIV; 150 mg/kg SC day 0, study week 1, intrarectal SHIV dose 10 x TCID50", "result": "<200", "unit": "copies/mL"}, {"measurement": "Plasma SHIV", "setting": "SHIV; 150 mg/kg SC day 0, study week 2, intrarectal SHIV dose 10 x TCID50", "result": "<200", "unit": "copies/mL"}, {"measurement": "Plasma SHIV", "setting": "SHIV; 150 mg/kg SC day 0, study week 3, intrarectal SHIV dose 10 x TCID50", "result": "<200", "unit": "copies/mL"}, {"measurement": "Plasma SHIV", "setting": "SHIV; 150 mg/kg SC day 0, study week 4, intrarectal SHIV dose 10 x TCID50", "result": "<200", "unit": "copies/mL"}, {"measurement": "Plasma SHIV", "setting": "SHIV; 150 mg/kg SC day 0, study week 5, intrarectal SHIV dose 10 x TCID50", "result": "<200", "unit": "copies/mL"}, {"measurement": "Plasma SHIV", "setting": "SHIV; 150 mg/kg SC day 0, study week 6, intrarectal SHIV dose 10 x TCID50", "result": "<200", "unit": "copies/mL"}, {"measurement": "Plasma SHIV", "setting": "SHIV; 150 mg/kg SC day 0, study week 7, intrarectal SHIV dose 10 x TCID50", "result": "<200", "unit": "copies/mL"}, {"measurement": "Plasma SHIV", "setting": "SHIV; 150 mg/kg SC day 0, study week 8, intrarectal SHIV dose 10 x TCID50", "result": "<200", "unit": "copies/mL"}, {"measurement": "Plasma SHIV", "setting": "SHIV; 150 mg/kg SC day 0, study week 9, intrarectal SHIV dose 33 x TCID50", "result": "<200", "unit": "copies/mL"}, {"measurement": "Plasma SHIV", "setting": "SHIV; 150 mg/kg SC day 0, study week 10, intrarectal SHIV dose 33 x TCID50", "result": "<200", "unit": "copies/mL"}, {"measurement": "Plasma SHIV", "setting": "SHIV; 300 mg/kg SC day 0, study week 1, intrarectal SHIV dose 10 x TCID50", "result": "<200", "unit": "copies/mL"}, {"measurement": "Plasma SHIV", "setting": "SHIV; 300 mg/kg SC day 0, study week 2, intrarectal SHIV dose 10 x TCID50", "result": "<200", "unit": "copies/mL"}, {"measurement": "Plasma SHIV", "setting": "SHIV; 300 mg/kg SC day 0, study week 3, intrarectal SHIV dose 10 x TCID50", "result": "<200", "unit": "copies/mL"}, {"measurement": "Plasma SHIV", "setting": "SHIV; 300 mg/kg SC day 0, study week 4, intrarectal SHIV dose 10 x TCID50", "result": "<200", "unit": "copies/mL"}, {"measurement": "Plasma SHIV", "setting": "SHIV; 300 mg/kg SC day 0, study week 5, intrarectal SHIV dose 10 x TCID50", "result": "<200", "unit": "copies/mL"}, {"measurement": "Plasma SHIV", "setting": "SHIV; 300 mg/kg SC day 0, study week 6, intrarectal SHIV dose 10 x TCID50", "result": "<200", "unit": "copies/mL"}, {"measurement": "Plasma SHIV", "setting": "SHIV; 300 mg/kg SC day 0, study week 7, intrarectal SHIV dose 10 x TCID50", "result": "<200", "unit": "copies/mL"}, {"measurement": "Plasma SHIV", "setting": "SHIV; 300 mg/kg SC day 0, study week 8, intrarectal SHIV dose 10 x TCID50", "result": "<200", "unit": "copies/mL"}, {"measurement": "Plasma SHIV", "setting": "SHIV; 300 mg/kg SC day 0, study week 9, intrarectal SHIV dose 33 x TCID50", "result": "<200", "unit": "copies/mL"}, {"measurement": "Plasma SHIV", "setting": "SHIV; 300 mg/kg SC day 0, study week 10, intrarectal SHIV dose 33 x TCID50", "result": "<200", "unit": "copies/mL"}, {"measurement": "infection in relation to Compound Ib plasma exposure", "setting": "SHIV; 150 or 300 mg/kg single SC, weekly intrarectal challenges with escalating SHIV doses, FIGS. 6B, 6C", "result": "became infected only after the viral challenges were administered at Compound Ib plasma exposures well below the clinical IQ exposure range of 4 to 9"}]}
